system: Plasmodium falciparum; experiment: GSK_TCMDC: Inhibition of Plasmodium falciparum 3D7 in whole erythrocytes, using parasite LDH activity as an index of growth.; format: functional, organism-based; conditions: Plasmodium falciparum, 3D7

| SMILES | XC50 [nM] |
| --- | --- |
| CN1CCN(c2cc3c(cc2Cl)CCN3C(=O)Cc2ccc(NC(=O)Nc3cccc4ccccc34)cc2)CC1 | 973 |
| CC(CCCC(=O)Nc1ccc(CC(C)NCCc2cccc(Cl)c2)cc1)NCCc1cccc(Cl)c1 (stereo not drawn) | 625 |
| CCCc1ccc(NC(=O)c2cccc(CN3CCCN(Cc4cccc(C#N)c4)CC3)c2)cc1 | 976 |
| CC1Cc2ccccc2N1S(=O)(=O)c1cc(OCC(F)(F)F)ccc1OCC(F)(F)F (stereo not drawn) | 645 |
| CC1(C)N=C(N)N=C(N)N1OCCCOc1cc(Cl)c(Cl)cc1Cl | 3.2 |
| CCCCCCCNC(=O)NCC1CCCN(CCCCCNC(=O)/C=C/c2ccc(Cl)c(Cl)c2)C1 (stereo not drawn) | 1040 |
| O=C(NCc1cccc(C(F)(F)F)c1)c1ccc(CNC(=O)c2ccc(O)c(-c3ccc(Cl)c(Cl)c3)c2)cc1 | 843 |
| CNC(=O)c1cnc(Nc2ccc(OCC(O)CN(C)C)cc2)nc1Nc1cccc(OC(C)C)c1 (stereo not drawn) | 137 |
| CCn1c(Cc2ccccc2)nnc1SCC(=O)N1c2ccccc2Sc2ccccc21 | 588 |
| COc1ccc(C(=O)N2CCN(c3ccc([N+](=O)[O-])c(NC4CC4)c3)CC2)cc1Br | 797 |
| COc1ccc2ncc(Cl)c(CCN3CCC(NCc4ccc5c(n4)NC(=O)CS5)CC3)c2c1 | 590 |
| CCc1cn2c3c(cc(C(=O)N[C@@H](Cc4ccccc4)[C@H](O)CNC(C)(C)CCCC(C)C)cc13)N(C)S(=O)(=O)C2 | 240 |
| CC(Oc1cc(-n2cnc3ccc(NC(=O)CCN4CCCCC4)cc32)sc1C(N)=O)c1ccccc1Cl (stereo not drawn) | 400 |
| O=C(NC1CCCCC1)N(Cc1ccc(-c2cccc(CNCc3ccc4c(c3)OCO4)c2)cc1)C1CCN(Cc2ccccc2)CC1 | 688 |
| O=C(N[C@H]1CCN(Cc2ccc(OC3CCN(Cc4ccccc4)CC3)c(Cl)c2)C1)c1ccc(Cl)c(Cl)c1 | 814 |
| CCCCCCCN(Cc1ccc(OC(C)(C)C(=O)OCC)cc1)C(=O)Nc1ccccc1OC(F)(F)F | 966 |
| CCC1CN2CCc3c([nH]c4ccccc34)C2CC1CC1=NCCc2c1[nH]c1ccc(OC)cc21 (stereo not drawn) | 641 |
| CCCCCCCN1CC[C@@H](CCCc2ccnc3ccc(OCC4CCCNC4)cc23)[C@@H](CC)C1 (stereo partly drawn) | 625 |
| CC1(C)NC(N)=NC(=N)N1OCCCO | 221 |
| C=C[C@H]1CN(CCCCCCC)CC[C@H]1C[C@@H](Cc1ccnc2ccc(OC)cc12)OC(=O)[C@](OC)(c1ccccc1)C(F)(F)F | 876 |
| COC(=O)c1ccc(CC(C)NCC(O)c2cccc(Br)c2)cc1 (stereo not drawn) | 694 |
| CCN(CC)CCCn1c(N)c(-c2nc3ccccc3[nH]2)c2nc(C#N)c(C#N)nc21 | 267 |
| Cc1cccc(C(=O)NC(NC(=S)Nc2ccc([N+](=O)[O-])cc2)C(Cl)(Cl)Cl)c1 (stereo not drawn) | 744 |
| CN(C)CCCNc1ncnc2c1[nH]c1ccc(F)cc12 | 732 |

| SMILES | XC50 [nM] |
| --- | --- |
| Cc1cccc2nc(-c3ccc(-c4cccc(CNC5CCN(C)CC5)c4)s3)[nH]c12 | 182 |
| Clc1ccc2c(NCCc3ccccc3)ccnc2c1 | 488 |
| COc1cccc(CN2CCC(CCOC(c3ccccc3)c3ccc(Cl)cc3)CC2)c1O (stereo not drawn) | 713 |
| Cc1cc(N2CCCN(C)CC2)nc(Nc2ccc(Br)cc2)n1 | 723 |
| CC(C)c1ccc(NC(=O)NC2CCN(CCCCCN(C)C(=O)/C=C/c3ccc(Cl)c(Cl)c3)C2)cc1 (stereo not drawn) | 830 |
| O=C(NCCN1CCCCC1)N1CCCN(c2ncnc3cc(-c4ccccc4)sc23)CC1 | 231 |
| CC(C)N1CCN(C(CN2CCN(CCCOc3ccc(-c4ccccc4)cc3)CC2)c2ccc(F)cc2)CC1 (stereo not drawn) | 678 |
| CN1CCc2ccc(NC(=O)Nc3ccc(Cl)c(Cl)c3)cc2C1 | 724 |
| O=C(Nc1ccc(OC2CCN(Cc3ccsc3)C2)c(Cl)c1)c1ccc2ncccc2c1 (stereo not drawn) | 966 |
| OC1=C2C(=Nc3ccccc3SC2c2cccs2)c2ccccc21 (stereo not drawn) | 229 |
| CS(=O)(=O)NCCCNCc1ccc(-c2ccc(-c3nc4cc(C(F)(F)F)ccc4[nH]3)s2)cc1 | 515 |
| COc1ccc(-c2nc3cccnc3n2CC(=O)Nc2cc(Cl)c(Cl)cc2Cl)c(OC)c1 | 722 |
| Fc1ccccc1-c1cc(Nc2ccncc2)nc(-c2cccnc2)n1 | 258 |
| Oc1cc(Nc2ccnc3cc(-c4cccc(CN5CCCCC5)c4)ccc23)c(F)cc1Cl | 102 |
| CCn1c(Sc2ccc(C#N)c([N+](=O)[O-])c2)nnc1-c1cc(OC)cc(OC)c1 | 565 |
| CCN(CCCN1CCCCC1)c1nccc(Nc2ccc(Cl)cc2)n1 | 1190 |
| COc1cccc(CCc2c(CCNCCCCCCNCCc3ccccc3)ccc(OC)c2OC)c1 | 721 |
| Cc1onc(-c2c(F)cccc2Cl)c1C(=O)Nc1ccccc1I | 952 |
| COc1cc(Cc2cnc(N)nc2N)ccc1OCc1ccc(-c2ccccc2C#N)cc1 | 940 |
| Cc1cc(C2CCN(CCCCNC(=O)c3ccc(-c4ccc(C(F)(F)F)cc4)cc3)CC2)c(C)cc1OCCO | 885 |
| O=C(Nc1ccc(OC2CCN(Cc3ccc(F)cc3)CC2)c(Cl)c1)c1ccco1 | 303 |
| c1cc(CNCC2CCCO2)cc(-c2csc(-c3nc4ccccc4[nH]3)c2)c1 (stereo not drawn) | 1040 |
| O=C(N[C@@H](Cc1ccccc1)C(=O)NC1CCCCCC1)c1ccc(O)c(-c2cccc(C(F)(F)F)c2)c1 | 735 |
| COc1cc2c(cc1OC)CN(CCc1ccc(NC(=O)c3cc4cc(Cl)ccc4[nH]3)cc1)CC2 | 1020 |

Source: ChEMBL document CHEMBL1157539, “Thousands of chemical starting points for antimalarial lead identification” (Nature, 2010)
